We go through 19 compounds from US8569302B2, “Inhibitors of flaviviridae viruses” (Gilead Sciences, Inc., priority 2009, dated 2013).

The inhibition is the drop in the measured response relative to a control, in per cent. Lower therefore signals a response near the control. The term % inhibition denotes how much of the control response was suppressed. Lower therefore signals a weak effect.

SMILES strings stand for the structures.

The first experiment has as its system human hepatoma Huh-7 cell line harboring a HCV replicon. The experiment in a line: HCV replicon assay (inhibition of viral replication, luciferase readout). The experiment is classed as cell-based. The note with it: Hepatitis C virus, 72 h, Huh-7 HCV replicon cells, 3 days incubation. On the procedure:
The anti-HCV activity of the compounds of this invention was tested in a human hepatoma Huh-7 cell line harboring a HCV replicon. The assay comprised the following steps:
Step 1: Compound Preparation and Serial Dilution.
Serial dilution was performed in 100% DMSO in a 384-well plate. A solution containing a compound at 225-fold concentration of the starting final serial dilution concentration was prepared in 100% DMSO and 15 μL added to the pre-specified wells in column 3 or 13 of a polypropylene 384-well plate. The rest of the 384-well plate was filled with 10 μL 100% DMSO except for columns 23 and 24, where 10 μL of 500 μM a HCV protease inhibitor (ITMN-191) in 100% DMSO was added. The HCV protease inhibitor was used a control of 100% inhibition of HCV replication. The plate was then placed on a Biomek FX Workstation to start the serial dilution. The serial dilution was performed for ten cycles of 3-fold dilution from column 3 to 12 or from column 13 to 22.
Step 2: Cell Culture Plate Preparation and Compound Addition
To each well of a black polypropylene 384-well plate, 90 μL of cell media containing 1600 suspended Huh-7 HCV replicon cells was added with a Biotek uFlow Workstation. A volume of 0.4 μL of the compound solution was transferred from the serial dilution plate to the cell culture plate on a Biomek FX Workstation. The DMSO concentration in the final assay condition was 0.44%. The plates were incubated for 3 days at 37° C. with 5% CO2 and 85% humidity.
Step 3: Detection of Cytotoxicity and Inhibition of Viral Replication
a) Assessment of cytotoxicity: The media in the 384-well cell culture plate was aspirated with a Biotek EL405 plate-washer. A volume of 50 μL of a solution containing 400 nM Calcein AM in 100% PBS was added to each well of the plate with a Biotek uFlow Workstation. The plate was incubated for 30 minutes at room temperature before the fluorescence signal ([…]) was measured with a Perkin Elmer Envision Plate Reader.
b) Assessment of inhibition of viral replication: The calcein-PBS solution in the 384-well cell culture plate was aspirated with a Biotek EL405 plate-washer. A volume of 20 μL of Dual-Glo luciferase buffer (Promega, Dual-Glo Luciferase Assay Reagent, cat. #E298B) was added to each well of the plate with a Biotek uFlow Workstation. The plate was incubated for 10 minutes at room temperature. A volume of 20 μL of a solution containing 1:100 mixture of Dual-Glo Stop & Glo substrate (Promega, Dual-Glo Luciferase Assay Reagent, cat. #E313B) and Dual-Glo Stop & Glo buffer (Promega, Dual-Glo Luciferase Assay Reagent, cat. #E314B) was then added to each well of the plate with a Biotek uFlow Workstation. The plate was incubated at room temperature for 10 minutes before the luminescence signal was measured with a Perkin Elmer Envision Plate Reader.
The percent cytotoxicity was determined by calcein AM conversion to fluorescent product. The average fluorescent signal from the DMSO control wells was defined as 100% nontoxic. The individual fluorescent signal from testing compound treated well was divided by the average signal from DMSO control wells and then multiplied by 100% to get the percent viability. The percent anti-HCV replication activity was determined by the luminescence signal from the testing well compared to DMSO control wells. The background signal was determined by the average luminescence signal from the HCV protease inhibitor treated wells and was subtracted from the signal from the testing wells as well as the DMSO control wells. Following 3-fold serial dilutions, the EC50 and CC50 values were calculated by fitting % inhibition at each concentration to the following equation: % inhibition=100%/[EC50/[I])^b+1]
Where b is Hill's coefficient. See, for reference, Hill, A. V., The Possible Effects of the Aggregation of the Molecules of Hæmoglobin on its Dissociation Curves, J. Physiol. 40: iv-vii. (1910). […]
On the technique in general: Replicon systems follow genome replication, usually without infectious particles.
Compound `CC(C)(C)C#Cc1cc(N(C(=O)[C@H]2CC[C@H](C)CC2)[C@H]2CC[C@H](Oc3cccnc3)CC2)c(C(=O)O)s1` [Compound 5, 5-(3,3-Dimethyl-but-1-ynyl)-3-{(trans-4-methyl-cyclohexanecarbonyl)-[trans-4-(pyridin-3-yloxy)-cyclohexyl]-amino}-thiophene-2-carboxylic acid] returned an inhibition at 2 µM of 99.8%.
`CC1CCC(C(=O)N(c2ccc(Oc3ccccn3)cc2)c2cc(C#CC(C)(C)C)sc2C(=O)O)CC1` (stereo not shown) [Compound 30, 5-(3,3-Dimethyl-but-1-ynyl)-3-{(4-methyl-cyclohexanecarbonyl)-[4-(pyridin-2-yloxy)-phenyl]-amino}-thiophene-2-carboxylic acid]: at 2 µM the inhibition was 70.7%.
Turning to `CC(C)(C)C#Cc1cc(N(C(=O)[C@H]2CC[C@H](C)CC2)[C@H]2CC[C@H](Oc3cccc(N4CCCC4)n3)CC2)c(C(=O)O)s1` [Compound 152, 5-(3,3-Dimethylbut-1-ynyl)-3-(4-methyl-N-(4-(6-(pyrrolidin-1-yl)pyridin-2-yloxy)cyclohexyl)cyclohexanecarboxamido)thiophene-2-carboxylic acid], at 2 µM the inhibition was 73.7%.
As to `CC(C)(C)C#Cc1cc(N(C(=O)[C@H]2CC[C@H](C)CC2)[C@H]2CC[C@H](Oc3cccnc3N3CCCC3)CC2)c(C(=O)O)s1` [Compound 149, 5-(3,3-Dimethylbut-1-ynyl)-3-(4-methyl-N-(4-(2-(pyrrolidin-1-yl)pyridin-3-yloxy)cyclohexyl)cyclohexanecarboxamido)thiophene-2-carboxylic acid], the inhibition at 2 µM came to 99%.
Turning to `CC1CCC(C(=O)N(c2cc(C#CC(C)(C)C)sc2C(=O)O)[C@H]2CCN(CCOc3ccccn3)C2)CC1` (stereo partly shown) [Compound 321], at 2 µM the inhibition was 99.9%.
In the case of `CC(C)(C)C#Cc1cc(N(C(=O)[C@H]2CC[C@H](C)CC2)[C@H]2CC[C@H](Sc3nccs3)CC2)c(C(=O)O)s1` [Compound 106, 5-(3,3-Dimethylbut-1-ynyl)-3-(4-methyl-N-(4-(thiazol-2-ylthio)cyclohexyl)cyclohexanecarboxamido)thiophene-2-carboxylic acid], the inhibition at 2 µM was found to be 99.9%.
Regarding `C[C@@H](CCOc1cc(CN2CCCC2)ccn1)N(c1cc(C#CC(C)(C)C)sc1C(=O)O)C(=O)[C@H]1CC[C@H](C)CC1` [Compound 62, 5-(3,3-dimethyl-but-1-ynyl)-3-[(trans-4-methyl-cyclohexanecarbonyl)-[1-(S)-methyl-3-(4-pyrrolidin-1-yl-methyl-pyridin-2-yloxy)-propyl]-amino]-thiophene-2-carboxylic acid], 2 µM produced 100% inhibition.
`C[C@@H]1CC[C@@H](C(=O)N(c2cc(C#CC(C)(C)C)sc2C(=O)O)[C@H]2CC[C@H](O[C@@H]3CCOC3)CC2)[C@@H](O)C1` [Compound 310, 5-(3,3-dimethylbut-1-ynyl)-3-((1R,2S,4R)-2-hydroxy-4-methyl-N-(4-(tetrahydrofuran-3R-yloxy)cyclohexyl)cyclohexanecarboxamido)thiophene-2-carboxylic acid] yielded an inhibition at 2 µM of 100%.
As to `CC(C)(C)C#Cc1cc(N(C(=O)[C@H]2CC[C@H](C)CC2)[C@@H]2CCC(Oc3ccccn3)C(CN3CCCC3)C2)c(C(=O)O)s1` (stereo partly drawn) [Compound 171, Sodium 5-(3,3-dimethylbut-1-ynyl)-3-(4-methyl-N-((1R)-4-(pyridin-2-yloxy)-3-(pyrrolidin-1-ylmethyl)cyclohexyl)cyclohexanecarboxamido)thiophene-2-carboxylate], at 2 µM the inhibition was 99.7%.
For the compound `CC1CCC(C(=O)N(c2cc(C#CC(C)(C)C)sc2C(=O)O)[C@H]2CC[C@H](Oc3cncc(CN4CCCC4)c3)CC2)CC1` (stereo partly shown) [Compound 193, 3-[[-4-(5-pyrrolidin-1-ylmethyl-pyridin-3-yloxy)-cyclohexyl]-(4-methyl-cyclohexanecarbonyl)-amino]-5-(3,3-dimethyl-but-1-ynyl)-thiophene-2-carboxylic acid], testing at 2 µM gave an inhibition of 100%.
In turn, `CC(C)(C)C#Cc1cc(N(C(=O)[C@H]2CC[C@H](C)CC2)[C@H]2CC[C@H](Sc3nc[nH]n3)CC2)c(C(=O)O)s1` [Compound 97, 3-(N-(4-(1H-1,2,4-Triazol-3-ylthio)cyclohexyl)-4-methylcyclohexanecarboxamido)-5-(3,3-dimethylbut-1-ynyl)thiophene-2-carboxylic acid] gave an inhibition at 2 µM of 99.9%.
`C[C@@H](CCOc1ccccn1)N(c1cc(C#CC(C)(C)C)sc1C(=O)O)C(=O)[C@H]1CC[C@H](C)CC1` [Compound 60] displayed an inhibition at 2 µM of 97.5%.
With `C[C@@H]1CC[C@@H](C(=O)N(c2cc(C#CC(C)(C)C)sc2C(=O)O)[C@H]2CC[C@H](OC3CCOC3)CC2)[C@@H](O)C1` (stereo partly shown) [Compound 227], 2 µM produced 100% inhibition.
Compound `CC(C)(C)C#Cc1cc(N(C(=O)[C@H]2CC[C@H](C)CC2)[C@H]2CC[C@@H](Oc3ncccn3)CC2)c(C(=O)O)s1` [Compound 181, 5-(3,3-Dimethylbut-1-ynyl)-3-(4-methyl-N-(4-(pyrimidin-2-yloxy)cyclohexyl)cyclohexanecarboxamido)thiophene-2-carboxylic acid] showed an inhibition at 2 µM of 98.3%.
In turn, `CC(C)(C)C#Cc1cc(N(C(=O)[C@H]2CC[C@H](C)CC2)[C@H]2C[C@@H](Oc3ccccn3)C2)c(C(=O)O)s1` [Compound 146, 5-(3,3-Dimethylbut-1-ynyl)-3-(4-methyl-N-(3-(pyridin-2-yloxy)cyclobutyl)cyclohexanecarboxamido)thiophene-2-carboxylic acid] gave an inhibition at 2 µM of 99.2%.
In the case of `C[C@@H](CCOc1cc(CN(C)C)ccn1)N(c1cc(C#CC(C)(C)C)sc1C(=O)O)C(=O)[C@H]1CC[C@H](C)CC1` [Compound 61, 3-[[3-(4-dimethylaminomethyl-pyridin-2-yloxy)-1-(S)-methyl-propyl]-(trans-4-methyl-cyclohexanecarbonyl)-amino]-5-(3,3-dimethyl-but-1-ynyl)-thiophene-2-carboxylic acid], 2 µM produced 99.9% inhibition.
`C[C@H]1CC[C@H](C(=O)N(c2cc(C#CC3(C(F)(F)F)CC3)sc2C(=O)O)[C@H]2CC[C@H](Oc3ccc(O)nn3)CC2)CC1` [Compound 342, 3-((1r,4R)—N-((1r,4R)-4-(6-hydroxypyridazin-3-yloxy)cyclohexyl)-4-methylcyclohexanecarboxamido)-5-((1-(trifluoromethyl)cyclopropyl)ethynyl)thiophene-2-carboxylic acid]: the inhibition at 2 µM came to 100%.
For `CC(C)(C)C#Cc1cc(N(C(=O)[C@H]2CC[C@H](C)CC2)[C@H]2CC[C@@H](Oc3ccc(O)nn3)CC2)c(C(=O)O)s1` [Compound 178, 5-(3,3-Dimethylbut-1-ynyl)-3-(N-(4-(6-hydroxypyridazin-3-yloxy)cyclohexyl)-4-methylcyclohexanecarboxamido)thiophene-2-carboxylic acid], 2 µM produced 100% inhibition.

The same experiment, now with this note: Huh-7 HCV replicon cells, 3 days incubation.
Regarding `CC1=CCC(C(=O)N(c2cc(C#CC(C)(C)C)sc2C(=O)O)[C@H]2CC[C@H](O[C@@H]3CCOC3)CC2)[C@H](C)C1` (single isomer, unassigned) [Compound 306, 5-(3,3-Dimethyl-but-1-ynyl)-3-{(4,6R-dimethyl-cyclohex-3-enecarbonyl)-[4-(tetrahydro-furan-3R-yloxy)-trans-cyclohexyl]-amino}-thiophene-2-carboxylic acid], the “% inhibition at 2μM” value stood at 99.99%.
